Source: publication PMC8294009, “Genetically-encoded discovery of proteolytically stable bicyclic inhibitors for morphogen NODAL” (Chemical Science, 2021)
*1 amine or outer side, *2 acyl side, *3 side chain or, on linkers, in order; H or OH if unused. Where a SMILES comes first, the peptide text is derived from it. Bridges are numbered along the chain shown (N, C = ends). S(p-C6F4)2 = Fc1c(F)c([*:1])c(F)c(F)c1Sc1c(F)c(F)c([*:2])c(F)c1F; X1 = O=C(C=NOCCCCCCOc1cc(C[*:2])cc(C[*:3])c1)[*:1]; X2 = O=C(C=NOCc1cc(C[*:2])cc(C[*:3])c1)[*:1]; mXylylene = c1cc(C[*:1])cc(C[*:2])c1

System: not given
Assay: not given
Settings: crosslinker bond; DBMB

Row | Compound | ring closure, isolated yield
1 | H-SFCDWYGC-NH2 + DBMB | 10%
2 | H-SHCDYYC-NH2 + DBMB | 47%
3 | H-SHCVWWDC-NH2 + DBMB | 16%
4 | H-SHDCYLEC-NH2 + DBMB | 27%
5 | H-SICRFFCGGG-NH2 + DBMB | 46%
6 | H-SPCAKGMNYC-NH2 + DBMB | 25%
7 | H-SPCKAGTGQC-NH2 + DBMB | 12%
8 | H-SPCKGPSATC-NH2 + DBMB | 10%
9 | H-SPCKGRHHNC-NH2 + DBMB | 63%
10 | H-SQCKRAHAEC-NH2 + DBMB | 10%
11 | H-SSWPARCLHQDLC-NH2 + DBMB | 46%
12 | H-STCQGECGGG-NH2 + DBMB | 19%
13 | H-SWDYRECYLEC-NH2 + DBMB | 12%
14 | H-SYCKADC-NH2 + DBMB | 47%
15 | H-SYCKPFC-NH2 + DBMB | 62%
16 | H-SYCKRAHKNC-NH2 + DBMB | 32%

Same assay, conditions: crosslinker bond; PFS

Row | Compound | ring closure, isolated yield
17 | H-SICRFFCGGG-NH2 + PFS | 40%
18 | H-STCQGECGGG-NH2 + PFS | 31%

Same assay, conditions: crosslinker bond; TBMB

Row | Compound | ring closure, isolated yield
19 | Ac-CNTWNPWCPWDAPLCam-NH2 + TBMB | 38%
20 | Ac-CSWPARCLHQDLC-NH2 + TBMB | 33%

Same assay, conditions: crosslinker bond; TSL-1

Row | Compound | ring closure, isolated yield
21 | H-SWDYRECYLEC-NH2 + TSL-1 | 54%
22 | H-SYCKADC-NH2 + TSL-1 | 37%
23 | H-SYCKPFC-NH2 + TSL-1 | 41%

Same assay, conditions: crosslinker bond; TSL-6

Row | Compound | ring closure, isolated yield
24 | H-SWDYRECYLEC-NH2 + TSL-6 | 42%
25 | H-SYCKRAHKNC-NH2 + TSL-6 | 14%
26 | H-SYCPYSGTNC-NH2 + TSL-6 | 32%

System: rhNODAL-induced phosphorylation of SMAD2 in P19 cells
Assay: Inhibition of pSMAD assay with P19 cells (western blot of p-SMAD2)
Format: cell-based
Settings: control inhibitor, concentration not given, rhNODAL 100 ng mL^−1, 1 hour
Excerpt: 3.6. Processing of Illumina data
The Gzip compressed FASTQ files were downloaded from BaseSpace™ Sequence Hub. The files were converted into tables of DNA sequences and their counts per experiment. Briefly, FASTQ files were parsed based on unique multiplexing barcodes within the reads discarding any reads that contained a low-quality score. Mapping the forward (F) and reverse […] barcoding regions, mapping of F and R priming regions allowing no more than one base substitution each and F-R read alignment allowing no mismatches between F and R reads yielded DNA sequences located between the priming regions. The files with DNA reads, raw counts, and mapped peptide modifications were uploaded to http://48hd.cloud/ server. Each experiment has a unique alphanumeric name (e.g., 20181108-16TSooPA-YW) and unique static URL:
Un- http://48hd.cloud/file/23 https://48hd.cloud/file/2 https://48hd.cloud/file/2 […]
TSL-6 https://48hd.cloud/file/2 https://48hd.cloud/file/2 https://48hd.cloud/file/2 […]
Elution https://48hd.cloud/file/2 https://48hd.cloud/file/2 https://48hd.cloud/file/2 […]
Amplificati https://48hd.cloud/file/2 https://48hd.cloud/file/2 https://48hd.cloud/file/2 […]
3.7. General protocol for protein extraction
All samples in the protein extraction protocol were done on ice. […]

Row | Compound | inhibition of rhNODAL-induced phosphorylation of SMAD2
27 | NC(=O)c1ccc(-c2nc(-c3ccc4c(c3)OCO4)c(-c3ccccn3)[nH]2)cc1 [SB431542] | inhibited

System: TYK-nu-NODAL cells
Assay: not given
Format: cell-based
Settings: human, 72 h, 10 µM
Description: 3.9. General protocol P19 Cell Culture
P19 Cell were obtained from ATCC cell bank and culture in Alpha Minimum Essential Medium with ribonucleotide and […] with 7.5% bovine calf serum and 2.5% fetal bovine serum at 37 °C with 5% CO2 supplementation.
3.10. Inhibition of pSMAD assay with P19 Cell […]
TYK-nu ovarian cancer cells were obtained from JCRB cell bank and cultured in Eagle’s minimal essential medium with 10 % fetal calf serum (Gibco/Thermo Fisher; Waltham, Massachusetts, USA) at 37 °C with 5% CO2 supplementation. To express the constitutive NODAL, a plasmid vector for human NODAL open reading frame (not including the stop codon) was cloned into pCMV6-Entry vector in frame with a tandem MYCDYK (FLAG) tag (Origene Cat. # RC211302). […]
Cells were seeded in three 96 wells plates with 600 cells/well or 6000 cells/well and grow in full media with G418 at 100 μg/mL O/N. The next day the media was changed to contain 19d peptide (10 µM, 1 µM and 0.1 µM) and without G418. Cells viability was measured every 24 hours with CellTiter-Glo® Luminescent Cell Viability Assay (Promega Cat. # G7572) over the course of 72

Row | Compound | viability of TYK-nu-NODAL cells compared to untreated TYK-nu-NODAL cells
28 | C[C@@H]1NC(=O)[C@H](CCCNC(=N)N)NC(=O)[C@H](CCCCN)NC(=O)[C@@H]2CSCc3cc(cc(c3)OCCCCCCON=CC(=O)N[C@@H](Cc3ccc(O)cc3)C(=O)N2)CSC[C@@H](C(N)=O)NC(=O)[C@H](CC(N)=O)NC(=O)[C@H](CCCCN)NC(=O)[C@H](Cc2c[nH]cn2)NC1=O [19b, TSL-[S]Y[C]KRAHKN[C]] (YCKRAHKNC-NH2; linker N-2-9 via X1) | 23%

System: not listed separately
Assay: in vitro
Format: in vitro ADME
Settings: mouse, serum
Description: 4. Proteolytic Stability Methods
4.1. Protocol for measurement of proteolytic stability in cell assay: […]
precipitate any proteins.
4.2. Protocol for measurement of proteolytic stability in PronaseTM :
The mixture was vortexed and […]
peptide solution (from 10 mM stock). The mixture was vortexed and incubated at 37 °C. At […]
precipitate the serum protein.

Row | remaining at 72 h | Compound
29 | 53% | C[C@@H]1NC(=O)[C@H](CCCNC(=N)N)NC(=O)[C@H](CCCCN)NC(=O)[C@@H]2CSCc3cc(cc(c3)OCCCCCCON=CC(=O)N[C@@H](Cc3ccc(O)cc3)C(=O)N2)CSC[C@@H](C(N)=O)NC(=O)[C@H](CC(N)=O)NC(=O)[C@H](CCCCN)NC(=O)[C@H](Cc2c[nH]cn2)NC1=O [19b, TSL-[S]Y[C]KRAHKN[C]] (YCKRAHKNC-NH2; linker N-2-9 via X1)

System: not listed separately
Assay: in vitro
Settings: Streptomyces griseus, isolated enzyme pronase, pH 7.4
Description: (§1) In a 600 L Eppendorf tube, we combined 196 L PBS (pH 7.4), 2 L of corresponding peptide
(§2) solution (from 10 mM stock) and 2 L of 0.1 mg/mL PronaseTM. The mixture was vortexed and
(§3) incubated at 37 °C. At indicated time points, 10 L of the solution was sampled, quenched with
(§4) 190 L of 50% aq. CH3CN and maintained at 4 °C until analysis by LCMS.

Row | remaining at 5 h, 100 µM | Compound
30 | 68 ± 14% | CC(C)C[C@@H]1NC(=O)[C@H](Cc2ccc(O)cc2)NC(=O)[C@@H]2CSCc3cc(cc(c3)OCCCCCCON=CC(=O)N[C@@H](Cc3c[nH]c4ccccc34)C(=O)N[C@@H](CC(=O)O)C(=O)N[C@@H](Cc3ccc(O)cc3)C(=O)N[C@@H](CCCNC(=N)N)C(=O)N[C@@H](CCC(=O)O)C(=O)N2)CSC[C@@H](C(N)=O)NC(=O)[C@H](CCC(=O)O)NC1=O [TSL-6-SWDYRECYLEC] (WDYRECYLEC-NH2; linker N-6-10 via X1)

System: not listed separately
Assay: Proteolytic stability in Pronase
Settings: Streptomyces griseus, Pronase (protease mixture) in PBS, pH 7.4
Description: as §1, §2, §3, §4

Row | remaining at 5 h, 100 µM | Compound
31 | < 1% | CC(C)C[C@@H]1NC(=O)[C@H](Cc2ccc(O)cc2)NC(=O)[C@@H](NC(=O)[C@H](CC(=O)O)NC(=O)[C@H](Cc2c[nH]cn2)NC(=O)[C@@H](N)CO)CSSC[C@@H](C(N)=O)NC(=O)[C@H](CCC(=O)O)NC1=O [6a] (H-SHDCYLEC-NH2; disulfide 4-8)
32 | 83 ± 6.9% | CC(C)C[C@@H]1NC(=O)[C@H](Cc2ccc(O)cc2)NC(=O)[C@@H]2CSCc3cc(cc(c3)CSC[C@@H](C(N)=O)NC(=O)[C@H](CCC(=O)O)NC1=O)CON=CC(=O)N[C@@H](Cc1c[nH]cn1)C(=O)N[C@@H](CC(=O)O)C(=O)N2 [6c] (HDCYLEC-NH2; linker N-3-7 via X2)
33 | < 1% | CC(C)C[C@@H]1NC(=O)[C@H](Cc2ccc(O)cc2)NC(=O)[C@@H](NC(=O)[C@H](CC(=O)O)NC(=O)[C@H](Cc2c[nH]cn2)NC(=O)[C@@H](N)CO)CSCc2cccc(c2)CSC[C@@H](C(N)=O)NC(=O)[C@H](CCC(=O)O)NC1=O [6g] (H-SHDCYLEC-NH2; linker 4-8 via mXylylene)
34 | 82 ± 13% | CC(C)C[C@@H]1NC(=O)[C@H](Cc2ccc(O)cc2)NC(=O)[C@@H]2CSCc3cc(cc(c3)CSC[C@@H](C(N)=O)NC(=O)[C@H](CCC(=O)O)NC1=O)CON=CC(=O)N[C@@H](Cc1c[nH]c3ccccc13)C(=O)N[C@@H](CC(=O)O)C(=O)N[C@@H](Cc1ccc(O)cc1)C(=O)N[C@@H](CCCNC(=N)N)C(=O)N[C@@H](CCC(=O)O)C(=O)N2 [TSL-1-SWDYRECYLEC] (WDYRECYLEC-NH2; linker N-6-10 via X2)

System: Pronase™
Assay: Proteolytic stability in Pronase
Settings: 5 hours, 37 °C
Description: as §1, §2, §3, §4

Row | Compound | stability in Pronase™ (in words)
35 | CC[C@H](C)[C@H](NC(=O)[C@@H](N)CO)C(=O)N[C@H]1CSc2c(F)c(F)c(c(F)c2F)Sc2c(F)c(F)c(c(F)c2F)SC[C@@H](C(=O)NCC(=O)NCC(=O)NCC(N)=O)NC(=O)[C@H](Cc2ccccc2)NC(=O)[C@H](Cc2ccccc2)NC(=O)[C@H](CCCNC(=N)N)NC1=O [PFS-SICRFFCGGG] (H-SICRFFCGGG-NH2; linker 3-7 via S(p-C6F4)2) | lower stability than bicycle TSL-3-SICRFFCGGG
